The subject of the first experiment is H3K36me3 in A549 cells. The experiment can be described thus: In-Cell Western (ICW) assay of SETD2 inhibitors (A549 assay). The following applies: Homo sapiens; A549 cells; read-out: SETD2 A549. Type of experiment: cell-based, human. A digest of the protocol:
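H3K36me3 In-Cell Western: cells exposed to compound for 3 days at 4,000 cells/well, 37° C. DRAQ5 (1:1000) marked cell number, with 700/800-channel Licor read-out.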
As to `Cc1ccc(F)c2cc(C(=O)Nc3cc(F)cc(N4CCC5(CCNCC5(F)F)C4)c3)[nH]c12` (stereo not shown) [compound 28], the IC50 is 70 nM.

Consider `Cc1ccc(F)c2cc(C(=O)N[C@@H]3CCC[C@H](N4CCn5nc(C(F)(F)F)nc5C4)C3)[nH]c12` [compound 1031], for which the IC50 is 1400 nM.

As for `Cc1ccc(F)c2cc(C(=O)Nc3cccc(N4CC[C@@H](N(C)C)C[C@H]4C)c3)[nH]c12` [compound 308], the IC50 was determined as 1300 nM.

For `Cc1ccc(F)c2cc(C(=O)N[C@@H]3CCCC(N4CCNC(=O)CC4)C3)[nH]c12` (stereo partly shown) [compound 893], the IC50 worked out at 900 nM.

For `Cc1cccnc1C(CCCN1CCNCC1)NC(=O)c1cc2cccc(C)c2[nH]1` (stereo not shown) [compound 567], the IC50 is above 25000 nM.

For the compound `Cc1ccc(F)c2cc(C(=O)Nc3cccc(N4CC[C@@H](N(C)C)[C@@H](F)C4)c3)[nH]c12` [compound 301], the IC50 was determined as 1200 nM.

As for `Cc1ccc(F)c2cc(C(=O)Nc3cccc(-c4cn5ccccc5n4)c3)[nH]c12` [compound 286], the IC50 is 1000 nM.

Consider `Cc1cccnc1C(NC(=O)C1Cc2cccc(C)c2N1)C1CC1` (stereo not shown) [compound 607], for which the IC50 is above 25000 nM.

Take `Cc1cccnc1C(CCC(=O)N1CCn2cncc2C1)NC(=O)c1cc2cccc(C)c2[nH]1` (stereo not shown) [compound 460]: the IC50 is 6200 nM.

In the case of `Cc1ccc(F)c2cc(C(=O)N[C@@H]3CCC[C@H](N4CCN(C(=O)CO)CC4)C3)[nH]c12` [compound 870], the IC50 was 40 nM.

For `Cc1cccc2cc(C(=O)N[C@@H](CO)c3ccccc3)[nH]c12` [compound 616], the IC50 is above 25000 nM.

On to `Cc1ccc(F)c2cc(C(=O)Nc3cccc(-n4cnnc4)c3)[nH]c12` [compound 281], for which the IC50 was 900 nM.

`Cc1ccc(F)c2cc(C(=O)Nc3cc(Cl)cc(N4CCC(CCCN5CCOCC5)CC4)c3)[nH]c12` [compound 188]: the IC50 came to 400 nM.

Turning to `Cc1ccc(F)c2cc(C(=O)Nc3cccc(N4CCC(Nc5cccnc5)CC4)c3)[nH]c12` [compound 157], the IC50 came to 300 nM.

Consider `Cc1ccc(F)c2cc(C(=O)N[C@@H]3CCC[C@H](N4CC[C@H](N(C)C)C4=O)C3)[nH]c12` [compound 1090], for which the IC50 came out at 1100 nM.

For `Cc1ccc(NC(=O)c2cc3cccc(C)c3[nH]2)cc1CN1CCOCC1` [compound 456], the IC50 was determined as 6100 nM.

`Cc1ccc(F)c2cc(C(=O)N[C@@H]3CCC[C@@H](N4CCN(C)C(=O)C4C)C3)[nH]c12` (stereo partly shown) [compound 885]: the IC50 was above 2000 nM.

On to `Cc1ccc(F)c2cc(C(=O)N[C@@H]3CCC[C@@H](N4CCC(N(C)C(=O)CO)C4)C3)[nH]c12` (stereo partly shown) [compound 935], for which the IC50 is above 2000 nM.

With `Cc1ccc(F)c2cc(C(=O)Nc3cccc(C(C)(C)O)c3)[nH]c12` [compound 315], the IC50 worked out at 1400 nM.

With `Cc1ccc(F)c2cc(C(=O)Nc3cn(C4CCN(C)CC4)cn3)[nH]c12` [compound 561], the IC50 was above 25000 nM.

`Cc1ccc(F)c2cc(C(=O)N[C@@H]3CCCC(N4CCC5(CC4)CNC(=O)N5)C3)[nH]c12` (stereo partly shown) [compound 890]: the IC50 was above 2000 nM.

In the case of `Cc1ccc(F)c2cc(C(=O)Nc3cccc(-c4ccc(CNS(C)(=O)=O)cc4)c3)[nH]c12` [compound 136], the IC50 was found to be 300 nM.

Turning to `Cc1cccnc1C(Cc1ccccc1)NC(=O)c1cc2cccc(C)c2[nH]1` (stereo not shown) [compound 408], the IC50 was 2900 nM.

Regarding `Cc1cccc2cc(C(=O)NC3CCN(C(=O)CCCN)C3)[nH]c12` (stereo not shown) [compound 593], the IC50 is above 25000 nM.

In the case of `Cc1ccc(F)c2cc(C(=O)N[C@@H]3CCC[C@H](N4CCC(N(C)C)C4=O)C3)[nH]c12` (stereo partly shown) [compound 1002], the IC50 was 1800 nM.

In the case of `CC(=O)N1CC2CC1CN2[C@H]1CCC[C@@H](NC(=O)c2cc3c(F)ccc(C)c3[nH]2)C1` (stereo partly shown) [compound 936], the IC50 was 500 nM.

Another experiment addresses T1, SETD2(1434-1711) (Homo sapiens, UniProt Q9BYW2).
T1 construct: SETD2 (1434-1711) Assay; catalogue N/A
T1 sequence (Q9BYW2 1434-1711): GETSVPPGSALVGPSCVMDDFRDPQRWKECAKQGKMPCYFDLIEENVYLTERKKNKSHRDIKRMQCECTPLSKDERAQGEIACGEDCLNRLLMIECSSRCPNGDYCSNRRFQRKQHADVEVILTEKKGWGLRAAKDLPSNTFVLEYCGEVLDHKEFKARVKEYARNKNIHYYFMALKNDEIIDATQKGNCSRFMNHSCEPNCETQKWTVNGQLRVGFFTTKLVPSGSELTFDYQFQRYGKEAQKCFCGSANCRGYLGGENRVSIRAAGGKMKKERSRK
The experiment can be described thus: SETD2 (1434-1711) assay. In kind it is biochemical. The following applies: read-out: SETD2 (1434-1711).
On to `Cc1ccc(F)c2cc(C(=O)Nc3cc(F)cc(N4CCC5(CCNCC5(F)F)C4)c3)[nH]c12` (stereo not shown) [compound 28], for which the IC50 worked out at 10 nM.

`Cc1ccc(F)c2cc(C(=O)N[C@@H]3CCC[C@H](N4CCn5nc(C(F)(F)F)nc5C4)C3)[nH]c12` [compound 1031]: the IC50 was 200 nM.

Turning to `Cc1ccc(F)c2cc(C(=O)Nc3cccc(N4CC[C@@H](N(C)C)C[C@H]4C)c3)[nH]c12` [compound 308], the IC50 came to 100 nM.

On to `Cc1ccc(F)c2cc(C(=O)N[C@@H]3CCCC(N4CCNC(=O)CC4)C3)[nH]c12` (stereo partly shown) [compound 893], for which the IC50 came out at 100 nM.

For the compound `Cc1cccnc1C(CCCN1CCNCC1)NC(=O)c1cc2cccc(C)c2[nH]1` (stereo not shown) [compound 567], the IC50 was 13600 nM.

As for `Cc1ccc(F)c2cc(C(=O)Nc3cccc(N4CC[C@@H](N(C)C)[C@@H](F)C4)c3)[nH]c12` [compound 301], the IC50 was determined as 100 nM.

For the compound `Cc1ccc(F)c2cc(C(=O)Nc3cccc(-c4cn5ccccc5n4)c3)[nH]c12` [compound 286], the IC50 is 100 nM.

For the compound `Cc1cccnc1C(NC(=O)C1Cc2cccc(C)c2N1)C1CC1` (stereo not shown) [compound 607], the IC50 is above 50000 nM.

On to `Cc1cccnc1C(CCC(=O)N1CCn2cncc2C1)NC(=O)c1cc2cccc(C)c2[nH]1` (stereo not shown) [compound 460], for which the IC50 was 4500 nM.

Take `Cc1ccc(F)c2cc(C(=O)N[C@@H]3CCC[C@H](N4CCN(C(=O)CO)CC4)C3)[nH]c12` [compound 870]: the IC50 is 10 nM.

As to `Cc1cccc2cc(C(=O)N[C@@H](CO)c3ccccc3)[nH]c12` [compound 616], the IC50 is 105000 nM.

On to `Cc1ccc(F)c2cc(C(=O)Nc3cccc(-n4cnnc4)c3)[nH]c12` [compound 281], for which the IC50 was determined as 200 nM.

Turning to `Cc1ccc(F)c2cc(C(=O)Nc3cc(Cl)cc(N4CCC(CCCN5CCOCC5)CC4)c3)[nH]c12` [compound 188], the IC50 turned out to be 20 nM.

Take `Cc1ccc(F)c2cc(C(=O)Nc3cccc(N4CCC(Nc5cccnc5)CC4)c3)[nH]c12` [compound 157]: the IC50 came to 50 nM.

As for `Cc1ccc(F)c2cc(C(=O)N[C@@H]3CCC[C@H](N4CC[C@H](N(C)C)C4=O)C3)[nH]c12` [compound 1090], the IC50 was found to be 500 nM.

As to `Cc1ccc(NC(=O)c2cc3cccc(C)c3[nH]2)cc1CN1CCOCC1` [compound 456], the IC50 was found to be 1400 nM.

With `Cc1ccc(F)c2cc(C(=O)N[C@@H]3CCC[C@@H](N4CCN(C)C(=O)C4C)C3)[nH]c12` (stereo partly shown) [compound 885], the IC50 was 7600 nM.

As to `Cc1ccc(F)c2cc(C(=O)N[C@@H]3CCC[C@@H](N4CCC(N(C)C(=O)CO)C4)C3)[nH]c12` (stereo partly shown) [compound 935], the IC50 is 1900 nM.

For the compound `Cc1ccc(F)c2cc(C(=O)Nc3cccc(C(C)(C)O)c3)[nH]c12` [compound 315], the IC50 was found to be 600 nM.

Turning to `Cc1ccc(F)c2cc(C(=O)Nc3cn(C4CCN(C)CC4)cn3)[nH]c12` [compound 561], the IC50 was above 10000 nM.

For `Cc1ccc(F)c2cc(C(=O)N[C@@H]3CCCC(N4CCC5(CC4)CNC(=O)N5)C3)[nH]c12` (stereo partly shown) [compound 890], the IC50 was found to be 100 nM.

In the case of `Cc1ccc(F)c2cc(C(=O)Nc3cccc(-c4ccc(CNS(C)(=O)=O)cc4)c3)[nH]c12` [compound 136], the IC50 is 400 nM.

On to `Cc1cccnc1C(Cc1ccccc1)NC(=O)c1cc2cccc(C)c2[nH]1` (stereo not shown) [compound 408], for which the IC50 is 400 nM.

As to `Cc1cccc2cc(C(=O)NC3CCN(C(=O)CCCN)C3)[nH]c12` (stereo not shown) [compound 593], the IC50 is above 50000 nM.

With `Cc1ccc(F)c2cc(C(=O)N[C@@H]3CCC[C@H](N4CCC(N(C)C)C4=O)C3)[nH]c12` (stereo partly shown) [compound 1002], the IC50 amounted to 1200 nM.

For the compound `CC(=O)N1CC2CC1CN2[C@H]1CCC[C@@H](NC(=O)c2cc3c(F)ccc(C)c3[nH]2)C1` (stereo partly shown) [compound 936], the IC50 worked out at 100 nM.

(Values after patent US12116358B2, “Substituted indoles and methods of use thereof” (EPIZYME, INC., priority 2018, dated 2024).)
